We go through 32 compounds from patent publication US20130190407A1, “CALCIUM RECEPTOR-ACTIVE MOLECULES” (NPS Pharmaceuticals, Inc., priority 1991, published 2013).

Test [1] concerns the target T1, parathyroid cell calcium receptor (Bos taurus, UniProt P35384).
T1 sequence (P35384 20-1085): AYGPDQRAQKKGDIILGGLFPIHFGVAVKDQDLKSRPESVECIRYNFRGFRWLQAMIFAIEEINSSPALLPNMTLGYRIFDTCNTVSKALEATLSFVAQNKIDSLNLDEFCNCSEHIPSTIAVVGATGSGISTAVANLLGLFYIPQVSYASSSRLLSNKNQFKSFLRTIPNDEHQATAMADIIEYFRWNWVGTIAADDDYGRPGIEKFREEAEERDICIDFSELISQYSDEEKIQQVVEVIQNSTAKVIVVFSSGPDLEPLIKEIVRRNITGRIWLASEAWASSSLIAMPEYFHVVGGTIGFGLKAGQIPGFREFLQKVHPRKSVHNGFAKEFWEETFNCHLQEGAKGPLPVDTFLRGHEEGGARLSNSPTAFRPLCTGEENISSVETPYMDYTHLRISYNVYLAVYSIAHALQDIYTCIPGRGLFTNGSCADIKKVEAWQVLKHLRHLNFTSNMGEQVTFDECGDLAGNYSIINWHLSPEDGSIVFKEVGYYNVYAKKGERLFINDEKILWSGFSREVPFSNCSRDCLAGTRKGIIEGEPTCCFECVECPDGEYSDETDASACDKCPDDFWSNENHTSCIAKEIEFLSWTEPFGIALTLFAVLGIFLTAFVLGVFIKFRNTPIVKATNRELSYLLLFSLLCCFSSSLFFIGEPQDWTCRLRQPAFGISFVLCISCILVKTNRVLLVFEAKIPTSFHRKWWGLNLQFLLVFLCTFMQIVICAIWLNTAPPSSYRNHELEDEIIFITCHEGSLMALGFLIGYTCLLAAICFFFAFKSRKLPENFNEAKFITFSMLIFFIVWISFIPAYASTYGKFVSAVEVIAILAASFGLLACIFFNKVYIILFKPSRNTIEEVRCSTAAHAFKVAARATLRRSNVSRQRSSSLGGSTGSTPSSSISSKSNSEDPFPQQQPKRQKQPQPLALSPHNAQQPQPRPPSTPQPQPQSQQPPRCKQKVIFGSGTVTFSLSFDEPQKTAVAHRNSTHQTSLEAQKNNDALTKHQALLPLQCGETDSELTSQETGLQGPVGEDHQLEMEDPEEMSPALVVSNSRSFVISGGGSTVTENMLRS
Description: Mobilization of intracellular Ca2+ ([Ca2+]i, fura-2) in bovine parathyroid cells. The class given is cell-based. On the set-up: Parathyroid glands were obtained from freshly slaughtered calves (12-15 weeks old); endogenous in cells; host or cells: dissociated primary bovine (calf) parathyroid cells. Particulars: for influx of extracellular Ca2+ / potentiation of Ca2+ mobilization / transient increases in [Ca2+]i: verapamil, D-600, TMB-8 100 μM, NPS 384 300 μM; for compounds with any effect on basal [Ca2+]i or increases evoked by extracellular Ca2+: tested at 1 μM. A general note: A change in cytosolic calcium serves as a functional read-out for many receptors and channels.
Description: This section describes procedures used to obtain and treat parathyroid cells from calves and humans. […] Human parathyroid glands, were obtained from patients undergoing surgical removal of parathyroid tissue for primary or uremic hyperparathyroidism (uremic HPT), and were treated similarly to bovine tissue.
Glands were trimmed of excess fat and connective tissue and then minced with fine scissors into cubes approximately 2-3 mm on a side. Dissociated parathyroid cells were prepared by collagenase digestion and then purified by centrifugation in Percoll buffer. The resultant parathyroid cell preparation was essentially devoid of red blood cells, adipocytes, and capillary tissue as assessed by phase contrast microscopy and Sudan black B staining. Dissociated and purified parathyroid cells were present as small clusters containing 5 to 20 cells.
The cells were then pelleted, resuspended in the same buffer, but lacking the ester, and incubated a further 15 minutes at 37° C. The cells were subsequently washed twice with PCB containing 0.5 mM CaCl2 and 0.5% BSA and maintained at room temperature (about 20° C.) Immediately before use, the cells were diluted five-fold with prewarmed 0.5 mM CaCl2-PCB to obtain a final BSA concentration of 0.1%. The concentration of cells in the cuvette used for fluorescence recording was 1−2×10^6/ml.
The fluorescence of indicator-loaded cells was measured at 37° C. in a spectrofluorimeter (Biomedical Instrumentation Group, University of Pennsylvania, Philadelphia, Pa.) equipped with a thermostated cuvette holder and magnetic stirrer using excitation and emission wavelengths of 340 and 510 nm, respectively. […] Leakage of dye is dependent on temperature and most occurs within the first 2 minutes after warming the cells in the cuvette. Dye leakage increases only very slowly thereafter. To correct the calibration for dye leakage, cells were placed in the cuvette and stirred at 37° C. for 2-3 minutes. The cell suspension was then removed, the cells pelleted, and the supernatant returned to a clean cuvette. […] This estimate was subtracted from the apparent Fmin.

In test [2] the target is bovine parathyroid cell calcium receptor (bovine) (UniProt P35384). Kind of test: cell-based or functional assay.
The test system of the next test is Sprague-Dawley rats. Description: Serum/plasma Ca2+, PTH and calcitonin in rats in vivo. The note with it: i.p. Further details: species or system rat. The procedure:
Compounds shown to activate the bovine parathyroid cell calcium receptor in vitro were tested for hypocalcemic activity in vivo. Male Sprague-Dawley rats (200 g) were maintained on a low calcium diet for one week prior to receiving test substance or vehicle as control. Blood was collected from the tail vein three hours after the intra-peritoneal administration of NPS 467. […] Serum total calcium, albumin and phosphate were measured by techniques well known in the art.
Rats (male, Sprague-Dawley, 250-300 g) were fed standard rat chow and fasted overnight prior to the experiment. NPS R-467 was suspended in corn oil, and administered as a single oral dose through a gavage needle. Three hours later a sample of blood was taken from the tail vein and assessed for ionized Ca^2+ levels.

Setting [3] is: EC50 for mobilization of intracellular Ca2+, bovine parathyroid cells.
Setting [4] is: Table 8 (arylalkylamine calcimimetics), parathyroid cell calcium receptor in vitro, read-out: EC50.
[5] abbreviates: 100 to 1000 μM, buffer containing 2 mM CaCl2.

Structures can show the parent of a compound that is named as a salt. Where two headings read alike, the source gives them in different places.

As a reminder, the EC50 is the concentration needed to bring the measured effect to its halfway point. As to `COc1ccc(CN[C@H](C)c2cccc3ccccc23)cc1Cl` [Compound 17M, (R)—N-(3-Chloro-4-methoxybenzyl)-1-(1-naphthyl)ethylamine hydrochloride], the EC50 in test [1] (setting [3]) is < 5000 nM; in test [1] (setting [4]) it was 150 nM.
As to polyArgTyr (22) (peptide), in test [2], the EC50 for mobilizing intracellular Ca^2+ was < 100 nM and the EC50 for the mobilization of intracellular Ca^2+ (fura-2, bovine parathyroid cells) came out at 200 nM.
For the compound `NCCCCCN` [Cadaverine, cadaverine], in test [1] (tested at 2 mM), the “effect on mobilization of intracellular Ca2+” value (from here on “effect on mobilization”) was “inactive”.
For `COc1ccc(CCN(C)CCCC(C#N)(c2cc(OC)c(OC)c(OC)c2)C(C)C)cc1OC` [Compound D-600], in test [1], the “influx of extracellular Ca2+” value was “blocked the influx of extracellular Ca^2+” and the “potentiation of Ca2+ mobilization / transient increases in [Ca2+]i” value is “potentiated the mobilization of intracellular Ca^2+”.
As to `CC(C)c1ccc(CN[C@H](C)c2cccc3ccccc23)cc1` [Compound 11X, (R)—N-(4-Isopropylbenzyl)-1-(1-naphthyl)ethylamine hydrochloride], the EC50 in test [1] (setting [3]) was < 5000 nM.
For `COc1ccc(CCCN[C@H](C)c2cccc(OC)c2)cc1` [Compound 20I], the EC50 in test [1] (setting [4]) was < 1000 nM.
For `N=C(N)NCCC[C@H](N)C(=O)NCCCNCCCNCCCCCNC(=O)[C@H](CC(N)=O)NC(=O)Cc1c[nH]c2cccc(O)c12` [Argiotoxin-659, argiotoxin 659], the “effect on [Ca2+]i” value in test [1] (tested at 100 to 300 μM) is “evoked transient increases in [Ca^2+]i”.
For `COc1cccc(C(C)NCCC(c2ccccc2)c2ccccc2)c1` (stereo not drawn) [meta-Methoxyfendiline], in test [1] (racemic mixture), the “potency in mobilization of intracellular Ca2+” value is “as potent as NPS 467”.
For the compound Philanthotoxin-433, in test [1] (tested at 500 μM), the “effect on mobilization” value is listed as “without effect”.
Turning to `CSc1cccc(C(C)NCCCc2ccccc2)c1` (stereo not drawn) [Compound 8J, N-(3-Phenylpropyl)-1-(3-thiomethylphenyl)ethylamine hydrochloride], the values for the concentration for a half-maximal effect (EC50) in test [1] (setting [3]) and in test [1] (setting [4]) were < 5000 nM and 780 nM, respectively.
For `COc1ccc([C@@H](C)N[C@H](C)c2cccc3ccccc23)cc1` [Compound 14U, (R,R)—N-(1-(4-Methoxyphenyl)ethyl)-1-(1-naphthyl)ethylamine hydrochloride], in that order: < 5000 nM and 130 nM.
`CC1=C(C(=O)OC(C)C)[C@H](c2cccc3nonc23)C([N+](=O)[O-])=C(C)N1` [(+) 202-791]: the “compounds with any effect on basal [Ca2+]i or increases evoked by extracellular Ca2+” value in test [1] is “None”.
As to `N[C@@H](CCC(=O)O)C(=O)O` [glutamate], in test [1] (bovine parathyroid cells or Xenopus oocytes expressing calcium receptors), the “response to mGluR agonists” value was “did not respond”.
Take `CCC[C@@H]1C[C@@H](C(=O)N[C@@H]([C@H]2O[C@H](SC)[C@H](O)[C@@H](O)[C@H]2O)[C@@H](C)O)N(C)C1` [Lincomycin, lincomycin]: the “effect on mobilization” value in test [1] (tested at 500 μM) is “without effect”.
With `COc1ccc(CC(=O)NCCCCCCCCCCCCN)cc1OC` [NPS 384], the “increase in [Ca2+]i” value in test [1] (300 μM) was “did not evoke an increase in [Ca^2+]i”. Also, in test [1] (setting [5]), the “effect on [Ca2+]i” value is “prompt fall in [Ca^2+]i”. Further, in test [1], the “influx of extracellular Ca2+” value was “blocked influx of extracellular Ca^2+” and the “potentiation of Ca2+ mobilization / transient increases in [Ca2+]i” value is “fails to do so”.
polyArg (100) (peptide): in test [2], the EC50 for the mobilization of intracellular Ca^2+ (fura-2, bovine parathyroid cells) was found to be 4 nM.
`C1CNCCNCCNCCNCCNCCN1` [Hexacyclen, 1,4,7,10,13,16-hexaaza-cyclooctadecane]: in test [1], the “potency relative to NPS 383” value is given as 7 fold and the “potency relative to pentaethylenehexamine” value came out at 25 fold.
For polyLys (27) (peptide), the EC50 for the mobilization of intracellular Ca^2+ (fura-2, bovine parathyroid cells) in test [2] turned out to be 30 nM.
As for `CC1=C(C(=O)OC(C)C)[C@@H](c2cccc3nonc23)C([N+](=O)[O-])=C(C)N1` [(−) 202-791], in test [1], the “compounds with any effect on basal [Ca2+]i or increases evoked by extracellular Ca2+” value was “None”.
For the compound polyLys (3.8) (peptide), the EC50 for the mobilization of intracellular Ca^2+ (fura-2, bovine parathyroid cells) in test [2] stood at 3000 nM.
As for `NCCCCCCCCCCCCNC(=O)Cc1ccc(O)cc1O` [NPS 021], in test [1] (around 500 μM), the “increase in [Ca2+]i evoked by extracellular Ca2+” value was “abolished”. Besides, the “change in [Ca2+]i by itself” value in test [1] (low [Ca2+] 0.5 mM) is “does not by itself cause any change in [Ca^2+]i”.
For the compound `COc1cccc(C(C)NCCCc2ccccc2)c1` (racemic) [NPS 467], the “time course of hypocalcemic effect” value with Sprague-Dawley rats is reported as “maximal within three hours”. Moreover, the “serum or whole blood Ca2+” value in the test on Sprague-Dawley rats (three hours, low calcium diet) is “dose-dependent reduction in serum or whole blood Ca^2+”. In the test on Sprague-Dawley rats (preliminary studies), the “circulating levels of PTH” value is on record as “dose-dependent reduction in circulating levels of PTH”.
protamine (peptide): in test [2], the cyclic AMP (% of control), isoproterenol-stimulated, 2 ug/ml protamine, +PTx is 89 % of control; the cyclic AMP (% of control), isoproterenol-stimulated, 2 ug/ml protamine, control is 20 % of control; the potency in mobilizing intracellular Ca^2+ in parathyroid cells (EC50) was 40 nM.
For the compound `C[C@@H](NCCCc1ccccc1Cl)c1cccc2ccccc12` [Compound 12Z, (R)—N-3-(2-Chlorophenyl)-1-propyl-1-(1-naphthyl)ethylamine hydrochloride], the EC50 in test [1] (setting [3]) is < 5000 nM.
As for `NCCCCCCCCCCCCN` [NPS 472, 1,12-diaminododecane], the “effect on [Ca2+]i” value in test [1] (setting [5]) was “prompt fall in [Ca^2+]i”.
`CCN(CC)CCCCCCCCOC(=O)c1cc(OC)c(OC)c(OC)c1` [TMB-8]: the “influx of extracellular Ca2+” value in test [1] is reported as “blocked the influx of extracellular Ca^2+”. The “potentiation of Ca2+ mobilization / transient increases in [Ca2+]i” value in test [1] is “potentiated the mobilization of intracellular Ca^2+”; in test [1] (listed as TNB-8) it was “potentiated transient increases in [Ca^2+]i”.
For the compound polyLys (14) (peptide), the EC50 for the mobilization of intracellular Ca^2+ (fura-2, bovine parathyroid cells) in test [2] was 1000 nM.
With `COc1ccc([C@@H](C)N[C@H](C)c2cccc3ccccc23)cc1C` [Compound 17P, (R,R)—N-(1-(4-Methoxy-3-methylphenyl)ethyl)-1-(1-naphthyl)ethylamine hydrochloride], the results for the concentration giving a half-maximal response (EC50) in test [1] (setting [3]) and in test [1] (setting [4]) were < 5000 nM and 40 nM, respectively.
For the compound `NCCCCN` [Putrescine], the “effect on mobilization” value in test [1] (tested at 2 mM) is “inactive”.
`N=C(N)NCCC[C@H](N)C(=O)NCCCNCCCNCCCCCNC(=O)[C@H](CC(N)=O)NC(=O)Cc1ccc(O)cc1O` [Argiotoxin-636, argiotoxin 636]: in test [1] (400 μM), the “effect on cytosolic Ca2+ responses to subsequent extracellular Ca2+” value is given as “did potentiate cytosolic Ca^2+ responses” and the “increases in [Ca2+]i” value was “did not elicit increases in [Ca^2+]”. Also, the “effect on [Ca2+]i” value in test [1] (tested at 100 to 300 μM) is given as “no effect”.
On to `COC(=O)C1=C(C)NC(C)=C([N+](=O)[O-])C1c1ccccc1C(F)(F)F` (stereo not drawn) [BAY K 8644], for which, in test [1], the “compounds with any effect on basal [Ca2+]i or increases evoked by extracellular Ca2+” value is “None”.
Consider `COc1ccc([C@@H]2Sc3ccccc3N(CCN(C)C)C(=O)[C@@H]2OC(C)=O)cc1` [diltiazem], for which the “activity like verapamil and D-600” value in test [1] (100 μM) is “effective”.
